The test concerns leaky scanning from cap-proximal AUG in HEK293T cells. As to the kind of experiment: Leaky scanning GFP reporter with cap-proximal upstream AUG, western blot. In kind it is cell-based, human. To be noted: upstream AUG with 16 nt 5′UTR. From the text: FIGS. 1A-G: Identification and initial characterization of eIF1-eIF4G1 inhibitors using a high-throughput drug screen (HTS). (1A) A flowchart describing the steps of the recombinant eIF1-eIF4G1 split-RL HTS. (1B) Selection of drugs that inhibit leaky scanning. HEK293T cells were transfected with a short 5′UTR bearing GFP reporter gene described on the top, treated with the indicated HTS hits, and then analyzed by western blot with GFP antibody. US and DS denote upstream and downstream AUG initiation sites, respectively. (1C) A graph showing the change in the ratio of the upstream and downstream AUG following treatment with the indicated drugs. (1D) The chemical structure of the eIF1-eIF4G1 inhibitors, i14G1-10 and i14G1-12. (1E) His-tagged eIF4G1 and His-tagged eIF1 were expressed in BL21 bacteria and purified using nickel NTA beads. Purified His-tagged eIF4G1 and His-tagged eIF1 were incubated with the indicated doses of either i14G1-10 (0-256 μM) or i14G1-12 (0-256 μM) for 5 minutes, followed by fluorescence measurement. For eIF4G1 excitation was at 280 nm and emission was at 350 nm. For eIF1 excitation was at 274 nm and emission was at 304 nm. The data shown represent three independent replicates. IC50 was calculated using Graphpad prism 9. (1F-1G) Western blots of GST pull down. […]
To address the functional significance of the temporal eIF1-eIF4G1 interaction, the inventors set out to develop pharmacological tools against this complex. To this end, the split-Renilla luciferase (RL) complementation assay previously found to be an efficient readout of eIF1 and eIF4G1 interaction in mammalian cells and a highly sensitive and powerful approach for the identification of protein-protein inhibitors was used. […] As knockdown of either eIF1 or eIF4G1 and interference with eIF1-eIF4G1 interaction led to the arrest of leaky scanning from cap-proximal AUG, the selected compounds were analyzed for their effect on initiation from cap-proximal AUG. […]

This note sets out measurements from patent US20250090510A1, “eIF4G1-eIF1 INHIBITORS AND USE THEREOF” (YEDA RESEARCH AND DEVELOPMENT CO. LTD., priority 2022, published 2025).

In the case of `O=C(/C=C/Sc1ccc(C(F)(F)F)cn1)c1ccccc1` [i14G1-10], the “upstream to downstream AUG ratio (leaky scanning)” value was “selectively changed the upstream to downstream ratio by inhibiting leaky scanning from the cap-proximal AUG”.

On to `Cn1ccnc1S/C(=C/C=C(C#N)C#N)c1ccc(Cl)cc1` [i14G1-12], for which the “upstream to downstream AUG ratio (leaky scanning)” value was “selectively changed the upstream to downstream ratio by inhibiting leaky scanning from the cap-proximal AUG”.
